Target: T1, Solute carrier family 15 member 1 (Homo sapiens) (UniProt P46059)
T1 sequence (whole entry): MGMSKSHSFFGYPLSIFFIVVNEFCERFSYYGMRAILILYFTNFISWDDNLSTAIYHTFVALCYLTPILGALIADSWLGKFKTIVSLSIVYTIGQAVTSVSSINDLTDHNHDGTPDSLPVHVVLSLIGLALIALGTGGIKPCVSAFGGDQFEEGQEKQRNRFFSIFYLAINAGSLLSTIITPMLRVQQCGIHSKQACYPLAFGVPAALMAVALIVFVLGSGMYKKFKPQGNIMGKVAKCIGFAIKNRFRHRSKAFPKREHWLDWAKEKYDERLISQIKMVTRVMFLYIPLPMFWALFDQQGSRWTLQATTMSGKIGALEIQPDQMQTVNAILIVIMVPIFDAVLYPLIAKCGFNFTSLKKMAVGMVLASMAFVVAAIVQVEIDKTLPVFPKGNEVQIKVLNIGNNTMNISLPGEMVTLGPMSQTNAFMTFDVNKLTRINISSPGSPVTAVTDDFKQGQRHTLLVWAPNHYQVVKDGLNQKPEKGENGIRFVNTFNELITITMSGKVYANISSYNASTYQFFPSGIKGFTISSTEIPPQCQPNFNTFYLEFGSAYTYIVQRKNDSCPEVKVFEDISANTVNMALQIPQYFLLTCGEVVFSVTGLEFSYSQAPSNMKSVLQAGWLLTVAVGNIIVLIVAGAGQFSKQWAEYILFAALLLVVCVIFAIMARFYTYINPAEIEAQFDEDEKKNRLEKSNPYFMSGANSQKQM
Test: TP_TRANSPORTER: uptake in Xenopus laevis oocytes
Format: functional, cell-based
Conditions: Oocyte

SMILES	Activity
NCCC(=O)N[C@@H](Cc1c[nH]cn1)C(=O)O	substrate [+]
C[C@@H](O)[C@H]1C(=O)N2C(C(=O)O)=C([C@H]3CCCO3)S[C@H]12	is not a substrate [-]
Nc1nc(/C(=C/CC(=O)O)C(=O)N[C@@H]2C(=O)N3C(C(=O)O)=CCS[C@H]23)cs1	substrate [+]
CO/N=C(\C(=O)N[C@@H]1C(=O)N2C(C(=O)O)=CCS[C@H]12)c1csc(N)n1	is not a substrate [-]
CC1(C)S[C@@H]2[C@H](NC(=O)Cc3ccccc3)C(=O)N2[C@H]1C(=O)O	substrate [+]
C=CC1=C(C(=O)O)N2C(=O)[C@@H](NC(=O)/C(=N\O)c3csc(N)n3)[C@H]2SC1	substrate [+]
NCCCC[C@H](N[C@@H](CCc1ccccc1)C(=O)O)C(=O)N1CCC[C@H]1C(=O)O	is not a substrate [-]
CCOC(=O)[C@H](CCc1ccccc1)N[C@H]1CS[C@H](c2cccs2)CN(CC(=O)O)C1=O	substrate [+]
C=CC1=C(C(=O)O)N2C(=O)[C@@H](NC(=O)/C(=N\OCC(=O)O)c3csc(N)n3)[C@H]2SC1	substrate [+]
O=C(O)CO/N=C(\C(=O)N[C@@H]1C(=O)N2C(C(=O)O)=CCS[C@H]12)c1cscn1	substrate [+]
CCOC(=O)[C@H](CCc1ccccc1)N[C@@H](C)C(=O)N1CCC[C@H]1C(=O)O	substrate [+]
O=C(O)CN1C[C@@H](c2cccs2)SC[C@H](N[C@@H](CCc2ccccc2)C(=O)O)C1=O	substrate [+]
C[C@H](N[C@@H](CCc1ccccc1)C(=O)O)C(=O)N1CCC[C@H]1C(=O)O	substrate [+]
CC1=C(C(=O)O)N2C(=O)[C@@H](NC(=O)[C@H](N)c3ccc(O)cc3)[C@H]2SC1	substrate [+]

Source: ChEMBL document CHEMBL2074235, “Transporter-mediated Drug Interactions” (Drug Metabol Pharmacokin, 2002)
